Results from PMC12461739, “Multi-targeted azacoumarin–cyanocinnamate hybrids induce G2/M arrest and apoptosis via tubulin, and COX-2/VEGFR modulation: insights from in vitro mechanistic basis and in vivo validation” (RSC Medicinal Chemistry, 2025).
“And” between values parts separate entries of the source, which are not always exact repeats. Identical values can stand only once. Like-named read-outs stand apart in the source and are kept apart here.

How the values were obtained:
[1] = FRAP (ferric reducing antioxidant power) assay; conditions: 37 °C, 60 min
Description: The resulting Fe^2+ forms a colored complex with the FRAP chromogenic probe, which can be quantitatively measured. The reaction mixture was prepared by combining FRAP assay buffer, FRAP probe, and FeCl3 solution as per the manufacturer's protocol. […] Absorbance was measured at 594 nm using a microplate reader after incubation at 37 °C for 60 minutes. Antioxidant activity was determined by comparing the absorbance of the samples to a standard curve generated using known concentrations of the ferrous standard provided in the kit.

[2] = Liver histopathology (H&E)
Description: (§3) Additionally, liver and kidney tissues were excised from each animal for further evaluation. […] The second portion was fixed in 10% neutral buffered formalin for histopathological examination to assess tissue morphology and damage.[96,97]
(§4) Liver and kidney tissues were collected from all experimental groups at the end of the study and immediately fixed in 10% neutral buffered formalin. After fixation, the samples were dehydrated, embedded in paraffin, and sectioned at a thickness of 5 μm using a rotary microtome. […] Histopathological examination of renal tissue focused on identifying acute tubular injury (ATI), characterized by tubular epithelial cell flattening, necrosis, apical vacuolization, and loss of the brush border. These features were assessed using a semi-quantitative scoring system.[110] Hepatic tissue sections were evaluated for the severity of hepatocellular injury using a modified Brunt grading system, which includes assessment of hepatocyte ballooning, necrosis, inflammation, and other degenerative changes.

p53 = assay: qRT-PCR gene expression, p53; format: cell-based, human; conditions: MCF-7, 7.653 μM, 24 h
Description: (§1) Untreated cells served as negative controls. RNA concentration and purity were verified spectrophotometrically prior to cDNA synthesis. Complementary DNA (cDNA) was synthesized from purified RNA using the RT^2 First Strand Kit (Qiagen, Valencia, CA, USA) following the supplied protocol. Quantitative real-time PCR (qRT-PCR) was performed on a Corbett Rotor-Gene 6000 system (Qiagen, USA) using the RT^2 SYBR® Green ROX™ FAST Master Mix (Qiagen). Each 25 μL reaction contained 12.5 μL of master mix, 1 μL of gene-specific primers (RT^2 qPCR Primer Assays, Qiagen), 1 μL of cDNA template, and 10.5 μL of RNase-free water. Gene-specific primers were selected using the PrimerBank database for BAX, BCL2, and TP53, along with GAPDH as the endogenous control (Table S3). Thermal cycling conditions were set as follows: initial enzyme activation at 95 °C for 10 minutes, followed by 40 cycles of denaturation at 95 °C for 15 seconds, and annealing at 60 °C for 30 seconds. Amplification specificity was confirmed by melting curve analysis. Gene expression levels were normalized to GAPDH mRNA as the internal reference, and relative quantification was performed using the ΔΔCt method. […] Statistical analysis was performed using GraphPad Prism software, with p < 0.05 considered statistically significant.[79]

[3] = system: Ehrlich ascites carcinoma (EAC) cells; assay: EAC model: viable EAC cell count and ascitic tumor volume; conditions: for total viable EAC cell count: 10 days
Description: To evaluate tumor burden in the experimental groups, ascitic fluid was collected from the peritoneal cavity using a sterile, graduated syringe. The volume of ascitic fluid was recorded for each animal. The collected fluid was then diluted with heparinized saline for viable cell counting. Cell viability and density were determined using the trypan blue exclusion method. A 0.4% (w/v) trypan blue solution was prepared by dissolving 0.4 g of dye in 100 mL of sterile distilled water and filtering it through a 0.22 μm membrane filter. Prior to counting, 10 μL of the ascitic cell suspension was mixed with an equal volume of trypan blue and incubated at room temperature for 2 minutes. Cells were loaded onto a hemocytometer (Thoma type, Germany) and examined under a light microscope at 40× magnification. Non-viable cells stained blue, whereas viable cells remained unstained. All measurements were performed in triplicate, and the results are expressed as mean ± SD.[93]
On day 1, all groups were injected i.p. with 2.5 × 10^6 viable EAC cells in 200 μL of sterile saline. Group 1 (EAC control) received EAC cells only and no further treatment. […] The compound was administered i.p. every other day (i.e., on days 2, 4, 6, 8, and 10), for a total of five doses over a 10 day treatment period. At the end of the experiment (day 11), ascitic fluid was collected from the peritoneal cavity of each animal. The number and viability of EAC cells were assessed using the trypan blue exclusion assay. Each experiment was performed in triplicate and independently replicated on at least three separate occasions. The results were presented as mean ± SD. Statistical comparisons between groups were conducted using GraphPad Prism, with p < 0.05 considered significant.[95]
On day 11, following the final treatment, ascitic fluid was collected from the peritoneal cavity using heparinized syringes for EAC cell viability and count analysis.

[4] = Kidney histopathology (H&E); conditions: compound 7 + EAC
Description: as §3, §4

Bax = assay: qRT-PCR gene expression, Bax; format: cell-based, human; conditions: MCF-7, 7.653 μM, 24 h
Description: as §1

[5] = MTT cytotoxicity assay, MCF-10A; format: cell-based, human; conditions: human, MCF-10A non-tumorigenic breast epithelial cells, MTT, 48 h treatment, non-tumorigenic breast epithelial cells; read-out: IC50, cytotoxicity toward MCF-10A
Description: (§2) The cytotoxic effects of the synthesized compounds were evaluated using the MTT assay. […] Following incubation, cells were treated with serial dilutions of the test compounds prepared in DMSO. The final concentration of DMSO in all wells, including controls, was maintained below 0.5% v/v to avoid solvent-related cytotoxicity. Doxorubicin was used as a positive control for comparison of antiproliferative activity. Following 48 hours of treatment, the culture medium was gently removed, and each well received 20 μL of MTT reagent (5 mg mL^−1 in phosphate-buffered saline). The plates were incubated at 37 °C for 4 hours to facilitate the enzymatic reduction of MTT into formazan by metabolically active cells. After incubation, the solution was discarded, and 100 μL of dimethyl sulfoxide was added. The absorbance of each well was measured at 570 nm using a microplate spectrophotometer. Cell viability was determined by comparing absorbance values to those of the untreated controls and expressed as a percentage. GraphPad Prism software was used to plot dose–response curves and calculate IC50 values.

MCF-10A cells = assay: MTT cytotoxicity assay, MCF-10A; format: cell-based, human
Description: as §2

MCF-7 cells = assay: MTT antiproliferative assay, MCF-7; format: cell-based, human; conditions: MTT, 48 h treatment, read-out: IC50, antiproliferative activity toward MCF-7
Description: The cytotoxic effects of the synthesized compounds were evaluated using the MTT assay. MCF-7, MDA-MB 231 (human breast cancer), and MCF-10A (non-tumorigenic breast epithelial) cells were seeded (1–3 × 10^4 cells per well) and incubated for 24 hours at 37 °C in a humidified atmosphere containing 5% CO2.[74] Following incubation, cells were treated with serial dilutions of the test compounds prepared in DMSO. The final concentration of DMSO in all wells, including controls, was maintained below 0.5% v/v to avoid solvent-related cytotoxicity. Doxorubicin was used as a positive control for comparison of antiproliferative activity. Following 48 hours of treatment, the culture medium was gently removed, and each well received 20 μL of MTT reagent (5 mg mL^−1 in phosphate-buffered saline). The plates were incubated at 37 °C for 4 hours to facilitate the enzymatic reduction of MTT into formazan by metabolically active cells. After incubation, the solution was discarded, and 100 μL of dimethyl sulfoxide was added. The absorbance of each well was measured at 570 nm using a microplate spectrophotometer. Cell viability was determined by comparing absorbance values to those of the untreated controls and expressed as a percentage. GraphPad Prism software was used to plot dose–response curves and calculate IC50 values.

**Q.** With CCOC(=O)/C(C#N)=C/c1ccc(Oc2c(C)c3cc(Br)c(O)c(Br)c3[nH]c2=O)cc1 [Compound 7, ethyl (E)-2-cyano-3-(4-((6,8-dibromo-7-hydroxy-4-methyl-2-oxo-1,2-dihydroquinolin-3-yl)oxy)phenyl)acrylate] as the molecule, how does the IC50 [1] read?
**A.** 145 µM

**Q.** What about the hepatocyte hydropic degeneration ([2]; EAC + compound 7, EAC group approximately 45%) of the same molecule?
**A.** around 15%

**Q.** And the portal inflammation grade ([2]; EAC + compound 7, EAC group grade 3)?
**A.** 2

**Q.** And the liver pathology score ([2]; EAC + compound 7, EAC group score 7, untreated 0)?
**A.** 3

**Q.** What about the lobular inflammation grade ([2]; compound 7 only, no EAC) of the same molecule?
**A.** 1

**Q.** And the portal inflammation grade ([2]; compound 7 only, no EAC)?
**A.** 2

**Q.** What about the liver pathology score ([2]; compound 7 only, no EAC, untreated 0) of the same molecule?
**A.** 4

**Q.** What about the “p53 expression relative to untreated control” value (p53) of the same molecule?
**A.** 3.03 fold

**Q.** And the “reduction in viable EAC cells” value ([3]; 2.5 mg kg^−1, vs EAC control)?
**A.** 53.27%

**Q.** What about the “total viable EAC cell count” value ([3]; 2.5 mg kg^−1 i.p. every two days, EAC control 199.33 ± 4.15) of the same molecule?
**A.** 93.15 ± 7.19 × 10^6 cells

**Q.** What about the “reduction in viable EAC cells” value ([3]; 5 mg kg^−1, vs EAC control) of the same molecule?
**A.** 65.41%

**Q.** What about the “total viable EAC cell count” value ([3]; 5 mg kg^−1 i.p. every two days) of the same molecule?
**A.** 68.95 ± 2.00 × 10^6 cells

**Q.** And the “reduction in viable EAC cells” value ([3]; 7.5 mg kg^−1, vs EAC control)?
**A.** 72.36%

**Q.** And the “total viable EAC cell count” value ([3]; 7.5 mg kg^−1 i.p. every two days)?
**A.** 55.10 ± 2.15 × 10^6 cells

**Q.** What about the “reduction in viable EAC cells” value ([3]; 10 mg kg^−1, vs EAC control) of the same molecule?
**A.** 85.92%

**Q.** And the “reduction of ascitic tumor volume” value ([3]; 10 mg kg^−1, vs untreated EAC group)?
**A.** 45.25%

**Q.** What about the “average ascitic tumor volume” value ([3]; 10 mg kg^−1, untreated EAC group 5.68 ± 0.15 mL) of the same molecule?
**A.** 3.11 ± 0.45 mL

**Q.** And the “total viable EAC cell count” value ([3]; 10 mg kg^−1 i.p. every two days)?
**A.** 28.06 ± 1.69 × 10^6 cells

**Q.** And the “reduction in viable EAC cells” value ([3]; 15 mg kg^−1, vs EAC control)?
**A.** 85.96%

**Q.** And the “total viable EAC cell count” value ([3]; 15 mg kg^−1 i.p. every two days)?
**A.** 27.98 ± 0.39 × 10^6 cells

**Q.** And the nephropathy class [4]?
**A.** class II

**Q.** What about the glomerular involvement ([4]; EAC group approximately 25%) of the same molecule?
**A.** 15%

**Q.** And the “Bax expression relative to untreated control” value (Bax)?
**A.** 5.22 fold

**Q.** And the IC50 at 48 h [5]?
**A.** 52 µM

**Q.** What about the “selectivity index toward breast cancer cells” value (MCF-10A cells; MCF-10A vs MCF-7 / MDA-MB 231) of the same molecule?
**A.** 5.3 to 6.8

**Q.** And the IC50 (MCF-10A cells; MTT, 48 h treatment, non-tumorigenic breast epithelial cells, read-out: IC50, cytotoxicity toward MCF-10A)?
**A.** 52.1 ± 1.76 µM

**Q.** And the IC50 (MCF-7 cells; Homo sapiens, MCF7, 48 h)?
**A.** 7.65 µM

**Q.** What about the IC50 (MCF-7 cells) of the same molecule?
**A.** 7.65 µM and 7.6 µM
